Among the data in US20250230165A1, “HETEROCYCLIC COMPOUNDS FOR USE IN THE TREATMENT OF CANCER” (ARTIOS PHARMA LIMITED, priority 2021, published 2025) are Kinact/Kl values, retold here.

For this experiment, the target named is T1, Human Polθ polymerase domain (aa1820-2590) (Homo sapiens, UniProt O75417).
T1 construct: Human Polθ polymerase domain (aa1820-2590) was expressed in E. coli; made in house; host or cells: E. coli
T1 sequence (O75417 1820-2590): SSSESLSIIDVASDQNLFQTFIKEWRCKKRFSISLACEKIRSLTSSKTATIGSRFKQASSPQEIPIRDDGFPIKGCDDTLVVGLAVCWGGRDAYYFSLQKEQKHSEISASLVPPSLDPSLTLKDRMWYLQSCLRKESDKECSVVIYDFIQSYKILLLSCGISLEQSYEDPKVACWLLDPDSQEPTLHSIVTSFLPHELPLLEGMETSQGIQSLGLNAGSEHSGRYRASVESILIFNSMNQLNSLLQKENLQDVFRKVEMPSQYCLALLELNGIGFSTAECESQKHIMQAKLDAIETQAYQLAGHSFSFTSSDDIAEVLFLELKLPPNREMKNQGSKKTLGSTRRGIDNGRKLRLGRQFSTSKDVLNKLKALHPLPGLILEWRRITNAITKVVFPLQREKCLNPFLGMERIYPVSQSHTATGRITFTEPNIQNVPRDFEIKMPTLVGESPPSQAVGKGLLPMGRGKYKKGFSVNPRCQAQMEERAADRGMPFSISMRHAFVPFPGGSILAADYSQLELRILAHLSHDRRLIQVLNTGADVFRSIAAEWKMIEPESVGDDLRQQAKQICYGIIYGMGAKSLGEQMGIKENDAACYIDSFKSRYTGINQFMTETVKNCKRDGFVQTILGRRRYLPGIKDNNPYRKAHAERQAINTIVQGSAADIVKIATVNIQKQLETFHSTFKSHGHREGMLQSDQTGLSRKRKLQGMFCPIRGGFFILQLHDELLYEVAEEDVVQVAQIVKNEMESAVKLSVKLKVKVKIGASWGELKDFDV
The experiment in a line: Polθ Polymerase Domain Kinact/KI Assay (PicoGreen). The conditions noted are these: 0.8 nM Polθ, 100 nM DNA substrate, kobs vs [I] fit for 2-step covalent inhibitor. It counts as biochemical. The method in brief:
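Kinact and KI derive from fitting kobs versus [I], where kobs were fitted from EDTA-stopped PicoGreen time courses (up to 60 min) in Tris pH 7.5 buffer with 1% DMSO, 0.8 nM enzyme, 100 nM DNA and […].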
In turn, `C=CC(=O)N1CCn2cc(CN3C[C@H]4CC(=O)N(c5cc(C(F)(F)F)cc(C)n5)[C@@H]4C(=O)N(C)c4cccc(Cl)c43)nc2[C@@H]1C` (racemic) [Example 142b] returned a Kinact/Kl of 630000 M⁻¹ s⁻¹. For `C=CC(=O)N1CC(N2CC[C@H](CN3C[C@H]4CC(=O)N(c5cc(C(F)(F)F)cc(C)n5)[C@@H]4C(=O)N(C)c4cccc(F)c43)C2)C1` [Example 213, (3aR,11aS)-5-(((S)-1-(1-acryloylazetidin-3-yl)pyrrolidin-3-yl)methyl)-6-fluoro-10-methyl-1-(6-methyl-4-(trifluoromethyl)pyridin-2-yl)-1,3a,4,5,10,11a-hexahydro-2H-benzo[b]pyrrolo [2,3-f][1,4] diazocine-2,11(3H)-dione], the Kinact/Kl stood at 1.08e+06 M⁻¹ s⁻¹.

As for `C=CC(=O)N1CCN2CC(=O)N(CCN3C[C@H]4CC(=O)N(c5cc(C(F)(F)F)cc(C)n5)[C@@H]4C(=O)N(C)c4cccc(F)c43)C[C@H]2C1` [Example 48, (3aR,11aS)-5-(2-((R)-8-acryloyl-3-oxooctahydro-2H-pyrazino[1,2-a]pyrazin-2-yl)ethyl)-6-fluoro-10-methyl-1-(6-methyl-4-(trifluoromethyl)pyridin-2-yl)-1,3a,4,5,10,11a-hexahydro-2H-benzo[b]pyrrolo[2,3-f][1,4]diazocine-2,11(3H)-dione], the Kinact/Kl stood at 110000 M⁻¹ s⁻¹. Compound `C=CC(=O)N1CC2(CN(CCN3C[C@H]4CC(=O)N(c5cc(C(F)(F)F)cc(C)n5)[C@@H]4C(=O)N(C)c4cccc(Cl)c43)C[C@H]3COCCN32)C1` (racemic) [Example 26b, (3aR,11aS)-5-(2-((S/R)-1-acryloyl-tetrahydro-1′H-spiro[azetidine-3,6′-pyrazino[2,1-c][1,4]oxazin]-8′(7′H)-yl)ethyl)-6-chloro-10-methyl-1-(6-methyl-4-(trifluoromethyl)pyridin-2-yl)-1,3a,4,5,10,11a-hexahydro-2H-benzo[b]pyrrolo[2,3-f][1,4]diazocine-2, 11(3H)-dione] showed a Kinact/Kl of 1.29e+06 M⁻¹ s⁻¹. As for `C=CC(=O)N1CC2(C1)CN(C(=O)CN1C[C@H]3CC(=O)N(c4cc(C(F)(F)F)cc(C)n4)[C@@H]3C(=O)N(C)c3cccc(F)c31)c1nccn12` [Example 106, (3aR,11aS)-5-(2-(1-acryloylspiro[azetidine-3,3′-imidazo[1,2-a]imidazo]-1′(2′H)-yl)ethyl)-6-fluoro-10-methyl-1-(6-methyl-4-(trifluoromethyl)pyridin-2-yl)-1,3a,4,5,10,11a-hexahydro-2H-benzo[b]pyrrolo[2,3-f][1,4]diazocine-2,11(3H)-dione], the figure is 1.14e+06 M⁻¹ s⁻¹. Turning to `C=CC(=O)N1CC(n2cnc(CN3C[C@H]4CC(=O)N(c5cc(C(F)(F)F)cc(C)n5)[C@@H]4C(=O)N(C)c4cccc(F)c43)c2)C1` [Example 38, (3aR,11aS)-5-((1-(1-acryloylazetidin-3-yl)-1H-imidazol-4-yl)methyl)-6-fluoro-10-methyl-1-(6-methyl-4-(trifluoromethyl)pyridin-2-yl)-1,3a,4,5,10,11a-hexahydro-2H-benzo[b]pyrrolo[2,3-f][1,4]diazocine-2,11(3H)-dione], the Kinact/Kl was 2.39e+06 M⁻¹ s⁻¹.

Regarding `C=C(CN(C)C)C(=O)N1Cc2ccc(CN3C[C@H]4CC(=O)N(c5cc(C(F)(F)F)cc(C)n5)[C@@H]4C(=O)N(C)c4cccc(F)c43)cc2C1` [Example 153, (3aR, 11aS)-5-((2-(2-((dimethylamino)methyl)acryloyl)isoindolin-5-yl)methyl)-6-fluoro-10-methyl-1-(6-methyl-4-(trifluoromethyl)pyridin-2-yl)-1,3a,4,5,10,11a-hexahydro-2H-benzo[b]pyrrolo[2,3-f][1,4]diazocine-2,11(3H)-dione], the Kinact/Kl came to 1.51e+06 M⁻¹ s⁻¹. `C=CC(=O)N1CC(c2cccc(CN3C[C@H]4CC(=O)N(c5cc(C(F)(F)F)cc(C)n5)[C@@H]4C(=O)N(C)c4cccc(F)c43)c2)C1` [Example 127, (3aR,11aS)-5-(3-(1-acryloylazetidin-3-yl)benzyl)-6-fluoro-10-methyl-1-(6-methyl-4-(trifluoromethyl)pyridin-2-yl)-1,3a,4,5,10,11a-hexahydro-2H-benzo[b]pyrrolo[2,3-f][1,4]diazocine-2,11(3H)-dione]: the Kinact/Kl is 650000 M⁻¹ s⁻¹. As for `C=C(CN(C)C)C(=O)N1CCc2cc(CN3C[C@H]4CC(=O)N(c5cc(C(F)(F)F)cc(C)n5)[C@@H]4C(=O)N(C)c4cccc(F)c43)ccc2C1` [Example 154, (3aR, 11aS)-5-((2-(2-((dimethylamino)methyl)acryloyl)-1,2,3,4-tetrahydroisoquinolin-6-yl)methyl)-6-fluoro-10-methyl-1-(6-methyl-4-(trifluoromethyl)pyridin-2-yl)-1,3a,4,5,10,11a-hexahydro-2H-benzo[b]pyrrolo[2,3-f][1,4]diazocine-2,11(3H)-dione], the figure is 2.3e+06 M⁻¹ s⁻¹. As for `C=CC(=O)N1Cc2cnc(CN3C[C@H]4CC(=O)N(c5cc(C(F)(F)F)cc(C)n5)[C@@H]4C(=O)N(C)c4cccc(Cl)c43)cc2C1` [Example 277, (3aR,11aS)-5-((2-acryloyl-2,3-dihydro-1H-pyrrolo[3,4-c]pyridin-6-yl)methyl)-6-chloro-10-methyl-1-(6-methyl-4-(trifluoromethyl)pyridin-2-yl)-1,3a,4,5,10,11a-hexahydro-2H-benzo[b]pyrrolo[2,3-f][1,4]diazocine-2,11(3H)-dione], the figure is 80000 M⁻¹ s⁻¹; as for `C=CC(=O)N1CC(N2CCC(CN3C[C@H]4CC(=O)N(c5cc(C(F)(F)F)cc(C)n5)[C@@H]4C(=O)N(C)c4cccc(C)c43)CC2)C1` [Example 93, (3aR,11aS)-5-((1-(1-acryloylazetidin-3-yl)piperidin-4-yl)methyl)-6,10-dimethyl-1-(6-methyl-4-(trifluoromethyl)pyridin-2-yl)-1,3a,4,5,10,11a-hexahydro-2H-benzo[b]pyrrolo[2,3-f][1,4]diazocine-2,11(3H)-dione], 2.73e+06 M⁻¹ s⁻¹; as for `Cc1cc(C(F)(F)F)cc(N2C(=O)C[C@@H]3CN(CCCCC4CN(C(=O)/C(Cl)=C/CN(C)C)C4)c4c(C)cccc4N(C)C(=O)[C@H]32)n1` [Example 254, (3aR,11aS)-5-(4-(1-((Z)-2-chloro-4-(dimethylamino)but-2-enoyl)azetidin-3-yl)butyl)-6,10-dimethyl-1-(6-methyl-4-(trifluoromethyl)pyridin-2-yl)-1,3a,4,5,10,11a-hexahydro-2H-benzo[b]pyrrolo[2,3-f][1,4]diazocine-2,11(3H)-dione], 2.13e+06 M⁻¹ s⁻¹. For `C=CC(=O)N1CC[C@@H]1c1nnc(CN2C[C@H]3CC(=O)N(c4cc(C(F)(F)F)cc(C)n4)[C@@H]3C(=O)N(C)c3cccc(C)c32)o1` [Example 274, (3aR,11aS)-5-((5-((R)-1-acryloylazetidin-2-yl)-1,3,4-oxadiazol-2-yl)methyl)-6,10-dimethyl-1-(6-methyl-4-(trifluoromethyl)pyridin-2-yl)-1,3a,4,5,10,11a-hexahydro-2H-benzo[b]pyrrolo[2,3-f][1,4]diazocine-2,11(3H)-dione], the Kinact/Kl was 470000 M⁻¹ s⁻¹.
